Laboratory results reported in patent publication US12195442B2, “(Hetero)arylimidazole compound and harmful organism control agent” (Nippon Soda Co., Ltd., priority 2018, dated 2025).

System: Mythimna separata
Assay: Test Example 1: efficacy on Mythimna separata (treated artificial feed)
Type: in vivo
Conditions: 1 μl of 5% emulsion (I) mixed with 0.8 g artificial feed; second instar larvae; 25° C.; fifth day
Description: 5 parts of the (hetero)aryl imidazole compound of the present invention, 93.6 parts of dimethylformamide, and 1.4 parts of polyoxyethylene alkyl aryl ether were mixed and dissolved to prepare emulsion (I) containing 5% of the active ingredient.
For a control, 98.5 parts of dimethylformamide and 1.5 parts of polyoxyethylene alkyl aryl ether were mixed and dissolved to prepare emulsion (II).
An insecticidal rate was calculated according to the following expression: Insecticidal rate (%)=(The number of dead insects/The number of tested insects)×100
0.8 g of commercially available artificial feed (Insecta LFS, manufactured by Nosan Corp.) and 1 μl of the emulsion (I) were well mixed to obtain test feed.
A plastic test container (capacity: 1.4 ml) was packed with 0.2 g of the test feed per treatment plot. Then, two second instar larvae of Mythimna separata were inoculated to each treatment plot. A plastic lid was put on the test container so as to prevent escape of the second instar larvae of Mythimna separata. The container was placed in a thermostat chamber of 25° C. On the fifth day, the insecticidal rate and the food intake were examined. The test was conducted in duplicate.
The insecticidal rate and the food intake of a control plot were examined in the same way as in Test Example 1 except that the emulsion (I) was changed to the emulsion (II).

SMILES | insecticidal rate or food intake as compared with the control plot
CCSc1cc(C2CC2)ccc1-c1ncc(C=C(Cl)C(F)(F)F)n1C (mixture of isomers) [d-6] | insecticidal rate of 100% for Mythimna separata or a food intake of 10% or less as compared with the control plot
CCS(=O)(=O)c1cc(C2CC2)ccc1-c1ncc(C=C(Cl)C(F)(F)F)n1C (mixture of isomers) [d-7] | insecticidal rate of 100% for Mythimna separata or a food intake of 10% or less as compared with the control plot
CCS(=O)(=O)c1cc(C2(C(N)=S)CC2)cnc1-c1ncc(C=C(Cl)C(F)(F)F)n1C (mixture of isomers) [d-18] | insecticidal rate of 100% for Mythimna separata or a food intake of 10% or less as compared with the control plot
CCS(=O)(=O)c1cc(C2(C)CC2)cnc1-c1ncc(C=C(Cl)C(F)(F)F)n1C (mixture of isomers) [d-20] | insecticidal rate of 100% for Mythimna separata or a food intake of 10% or less as compared with the control plot
CCS(=O)(=O)c1cc(C2(c3ccccn3)CC2)cnc1-c1ncc(C=C(Cl)C(F)(F)F)n1C (mixture of isomers) [d-21] | insecticidal rate of 100% for Mythimna separata or a food intake of 10% or less as compared with the control plot
CCS(=O)(=O)c1cc(C2CC2)cnc1-c1ncc(C=C(Br)C(F)(F)F)n1C (mixture of isomers) [d-24] | insecticidal rate of 100% for Mythimna separata or a food intake of 10% or less as compared with the control plot
Cn1c(C=C(Cl)C(F)(F)F)cnc1-c1ncc(C2CC2)cc1S(C)(=O)=O (mixture of isomers) [d-28] | insecticidal rate of 100% for Mythimna separata or a food intake of 10% or less as compared with the control plot
CCS(=O)(=O)c1cc(C2CCCC2)cnc1-c1ncc(C=C(Cl)C(F)(F)F)n1C (mixture of isomers) [d-32] | insecticidal rate of 100% for Mythimna separata or a food intake of 10% or less as compared with the control plot
CCS(=O)(=O)c1cc(C2CC2)cnc1-c1ncc(C(F)=C(F)OC(F)(F)F)n1C (mixture of isomers) [d-37] | insecticidal rate of 100% for Mythimna separata or a food intake of 10% or less as compared with the control plot
CCS(=O)(=O)c1cc(C2CC2)c[n+]([O-])c1-c1ncc(C=C(Cl)C(F)(F)F)n1C (mixture of isomers) [e-4] | insecticidal rate of 100% for Mythimna separata or a food intake of 10% or less as compared with the control plot
CCS(=O)(=O)c1cc(C2CC2)cnc1-c1ncc(C=CC(F)(F)C(F)(F)F)n1C [d-1] | insecticidal rate of 100% for Mythimna separata or a food intake of 10% or less as compared with the control plot
CCS(=O)(=O)c1cc(C2CC2)ccc1-c1ncc(C=CC(F)(F)C(F)(F)C(F)(F)F)n1C [d-3] | insecticidal rate of 100% for Mythimna separata or a food intake of 10% or less as compared with the control plot
CCS(=O)(=O)c1cc(C2CC2)cnc1-c1ncc(C=CC(F)(F)C(F)(F)C(F)(F)C(F)(F)F)n1C [d-4] | insecticidal rate of 100% for Mythimna separata or a food intake of 10% or less as compared with the control plot
CCS(=O)(=O)c1cc(C2CC2)ccc1-c1ncc(C=CC(F)(F)C(F)(F)F)n1C [d-5] | insecticidal rate of 100% for Mythimna separata or a food intake of 10% or less as compared with the control plot
CCS(=O)(=O)c1cc(C2CC2)cnc1-c1ncc(C=C(Cl)Cl)n1C [d-8] | insecticidal rate of 100% for Mythimna separata or a food intake of 10% or less as compared with the control plot
CCS(=O)(=O)c1cc(C2CC2)cnc1-c1ncc(C=C(Cl)C(F)(F)C(F)(F)F)n1C [d-12] | insecticidal rate of 100% for Mythimna separata or a food intake of 10% or less as compared with the control plot
CCS(=O)(=O)c1cc(C2CC2)cnc1-c1ncc(C=C(Cl)C(F)(F)C(F)(F)C(F)(F)F)n1C [d-13] | insecticidal rate of 100% for Mythimna separata or a food intake of 10% or less as compared with the control plot
CCS(=O)(=O)c1cc(C2CC2)cnc1-c1ncc(C=C(Cl)I)n1C [d-14] | insecticidal rate of 100% for Mythimna separata or a food intake of 10% or less as compared with the control plot
CCS(=O)(=O)c1cc(C2(C#N)CC2)cnc1-c1ncc(C=C(Cl)C(F)(F)F)n1C [d-15, 1-(6-(5-(2-chloro-3,3,3-trifluoroprop-1-en-1-yl)-1-methyl-1H-imidazol-2-yl)-5-(ethylsulfonyl)pyridin-3-yl)cyclopropane-1-carbonitrile] | insecticidal rate of 100% for Mythimna separata or a food intake of 10% or less as compared with the control plot
CCS(=O)(=O)c1cc(C2(C#N)CC2)cnc1-c1ncc(C=CC(F)(F)F)n1C [d-16] | insecticidal rate of 100% for Mythimna separata or a food intake of 10% or less as compared with the control plot
CCS(=O)(=O)c1cc(C2CC2)cnc1-c1ncc(C=C(C(F)(F)F)C(F)(F)F)n1C [d-19] | insecticidal rate of 100% for Mythimna separata or a food intake of 10% or less as compared with the control plot
CCS(=O)(=O)c1cc(C2(C#N)CC2)cnc1-c1ncc(C=CC(F)(F)C(F)(F)F)n1C [d-22] | insecticidal rate of 100% for Mythimna separata or a food intake of 10% or less as compared with the control plot
CCS(=O)(=O)c1cc(C2(C#N)CC2)cnc1-c1ncc(C=CC(F)(F)C(F)(F)C(F)(F)F)n1C [d-23] | insecticidal rate of 100% for Mythimna separata or a food intake of 10% or less as compared with the control plot
CCS(=O)(=O)c1cc(C2CC2)cnc1-c1ncc(C=C(F)C(F)(F)C(F)(F)C(F)(F)F)n1C [d-27] | insecticidal rate of 100% for Mythimna separata or a food intake of 10% or less as compared with the control plot
CCS(=O)(=O)c1cc(C2(C)CC2)cnc1-c1ncc(C=CC(F)(F)C(F)(F)C(F)(F)F)n1C [d-29] | insecticidal rate of 100% for Mythimna separata or a food intake of 10% or less as compared with the control plot
Cn1c(C=C(Cl)C(F)(F)C(F)(F)F)cnc1-c1ncc(C2CC2)cc1S(C)(=O)=O [d-30] | insecticidal rate of 100% for Mythimna separata or a food intake of 10% or less as compared with the control plot
CCS(=O)(=O)c1cc(C2CC2)cnc1-c1ncc(C=C(Cl)C(F)(F)F)n1C [d-33] | insecticidal rate of 100% for Mythimna separata or a food intake of 10% or less as compared with the control plot
CCS(=O)(=O)c1cc(C2CC2)cnc1-c1ncc(C(F)=C(F)OC(F)(F)C(F)(F)C(F)(F)F)n1C [d-35] | insecticidal rate of 100% for Mythimna separata or a food intake of 10% or less as compared with the control plot
CCS(=O)(=O)c1cc(C2CC2)c[n+]([O-])c1-c1ncc(C=C(F)C(F)(F)C(F)(F)F)n1C [e-1] | insecticidal rate of 100% for Mythimna separata or a food intake of 10% or less as compared with the control plot
